The record followed here is patent publication US20240400986A1, “MEMBRANE BOUND COMPOSITIONS AND METHODS RELATING TO SAME” (FLAGSHIP PIONEERING INNOVATIONS VII, LLC, priority 2021, published 2024).

Read-outs that look alike come from different tables or passages of the source. Some results are limits rather than exact numbers.

Series [1] relates to neuronal cell line derived from human neuroblastoma. The series is described as follows: Small molecule compound screen of gigasome production in neuronal monocultures. The note with it: for Fold Change of Gigasomes Produced vs. DMSO / Number of Gigasomes Produced: neuronal cells, 24 hours; for fold induction at 0.01 µM / fold induction at 10 µM / fold induction at 0.1 µM / fold induction at 1 µM: Homo sapiens, read-out: Fold Change of Gigasomes Produced vs. DMSO.

In series [2] the test system is cardiomyocytic cell line derived from human ventricular heart tissue. The series can be described thus: Small molecule compound screen of gigasome production in cardiomyocytic monocultures.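 As to all read-outs here: gigasomes shed into the culture medium were imaged by confocal microscopy and counted as round particles lacking nuclear signal, extrapolated to the whole well, fold change is relative to DMSO vehicle.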 As to conditions: for fold induction at 0.1 µM / fold induction at 0.01 µM / fold induction at 1 µM / fold induction at 10 µM: Homo sapiens, Cardiomyocyte, read-out: Fold Change of Gigasomes Produced vs. DMSO.
Description: For the screening, a total of 100 randomly organized compounds (TargetMol) were divided in 5 groups. Each group included an untreated condition, a vehicular DMSO control, and a known high-gigasome producing condition to comparatively study gigasome production rates. As a cell death control group, 500 nM Staurosporine was added to induce apoptosis. Cultures were incubated for 24 hours under gigasome inducing conditions at concentrations ranging between 10 nM and 10,000 nM. […] The Zeiss ZEN Blue software was used to distribute imaging fields of view (positions) to create an unbiased imaging sample of a well. 5 images were taken using a Zeiss LSM 900 confocal microscope. […] The BioApps ZEN software package was used to perform cell nucleus segmentation and counting. After 24 hours, gigasomes were harvested from the cell culture media by gently removing from the top of each 96-well ⅔ of the total volume without disturbing the cell layer (containing the settled gigasomes) and by adding to each well the same amount of PBS containing 0.5 mM EDTA. The wells were washed twice gently, and the gigasome-containing media/0.5 mM EDTA PBS wash was transferred into the well of a 384-well glass bottom plate. Cells remaining in the 96-well plates were assessed for viability using CellTiter-Glo (Promega).
For gigasome analysis in 384-well plates, the Zeiss ZEN Blue software was used to distribute positions to create an unbiased imaging sample of a well. 6 images per well were taken using a Zeiss LSM 900 confocal microscope. […] A watershed binary segmentation step was performed to separate grouped objects. For each particle in the mask, characteristic parameters of the particle were calculated and saved. […] Particles of interest were identified by thresholding by area and circularity. […] Circularity, defined by the formula 4pi(area/perimeter^2, was set to be between 0.8, where a value of 1.0 is a perfect circle, and a value of 0 is a line. Gigasomes were identified from the particles of interest by thresholding by mean nuclear signal. The nuclear signal threshold was set using a value equal to one quarter of a threshold value calculated by the Li auto-threshold algorithm applied to the distribution of all particles of interest. Particles of interest with nuclear signal below this value were considered “negative” for nuclear material and were identified as gigasomes. A sampling factor was calculated to extrapolate the total quantity of a type of object (particles, particles of interest, gigasomes) in the well. The sampling factor was the percentage of the well's area that was imaged. […] In some experiments, the number of cells in the cell cultures were estimated with a cell counter. […] The normalized quantity or distribution of objects was described as a quantity or distribution of objects per 1000 cells.

Series [3] relates to neuronal cell line derived from human neuroblastoma.
Description: For the screening, a total of 99 compounds (TargetMol) were divided in 5 groups. Each group included an untreated condition, a vehicular DMSO control, and a known high-gigasome producing condition to comparatively study gigasome production rates. As a cell death control group, 500 nM Staurosporine was added to induce apoptosis. Cultures were incubated for 24 hours under gigasome inducing conditions at concentrations ranging between 10 nM and 10,000 nM. Before the end of the treatment, live neuronal cultures were imaged. The Zeiss ZEN Blue software was used to distribute imaging fields of view (positions) to create an unbiased imaging sample of a well. 5 images were taken using a Zeiss LSM 900 confocal microscope. […] The BioApps ZEN software package was used to perform cell nucleus segmentation and counting. After 24 hours, gigasomes were harvested from the cell culture media by gently removing from the top of each 96-well ⅔ of the total volume without disturbing the cell layer (containing the settled gigasomes) and by adding to each well the same amount of PBS. […] Cells remaining in the 96-well plates were assessed for viability using CellTiter-Glo (Promega).
In series [4] the test system is cardiomyocytic cell line derived from human ventricular heart tissue. The series can be described thus: Cell viability in cardiomyocyte compound screen (CellTiter-Glo). The format is cell-based.
Excerpt: Cells were stained with Hoechst 34580, CellTracker Green/CellMask Green Actin and MitoTracker Deep Red to detect nuclear material, cytoplasm/F-actin, and mitochondria, respectively, and cultured in poly-L-lysine-coated 96-well glass bottom plates at 15,800 cells/cm^2 and allowed to adhere overnight. For the screening, a total of 100 randomly organized compounds (TargetMol) were divided in 5 groups. Each group included an untreated condition, a vehicular DMSO control, and a known high-gigasome producing condition to comparatively study gigasome production rates. As a cell death control group, 500 nM Staurosporine was added to induce apoptosis. Cultures were incubated for 24 hours under gigasome inducing conditions at concentrations ranging between 10 nM and 10,000 nM. […] Cells remaining in the 96-well plates were assessed for viability using CellTiter-Glo (Promega).
Setting [5] is: Table 22, dose 100 nM, cardiomyocytes, 24 hours.
The mark [6] stands for this setting: Table 22, dose 1000 nM, cardiomyocytes, 24 hours.
The mark [7] stands for this setting: Table 22, dose 10000 nM, cardiomyocytes, 24 hours.
Setting [8] is: neuronal cells, dose 10 nM, 24 hours.
Where [9] appears, read: neuronal cells, dose 100 nM, 24 hours.
[10] abbreviates: neuronal cells, dose 1000 nM, 24 hours.
The mark [11] stands for this setting: neuronal cells, dose 10000 nM, 24 hours.
Setting [12] is: Table 23 (down-regulators), dose 10 nM, cardiomyocytes.
Where [13] appears, read: Table 23 (down-regulators), dose 100 nM, cardiomyocytes.
Setting [14] is: Table 23 (down-regulators), dose 1000 nM, cardiomyocytes.
Setting [15] is: Table 23 (down-regulators), dose 10000 nM, cardiomyocytes.
Setting [16] is: Table 22, dose 10 nM, cardiomyocytes, 24 hours.

As to `CO/C1=C\C(C)=C\[C@@H](C)[C@@H](O)[C@@H](C)C/C(C)=C/C=C/[C@H](OC)[C@@H]([C@@H](C)[C@@H](O)[C@H](C)[C@@]2(O)C[C@@H](O)[C@H](C)[C@@H](C(C)C)O2)OC1=O` [Bafilomycin A1, reference compound], the “Fold Change of Gigasomes Produced vs. DMSO” value (shortened to “Fold Change”) is listed as 1.75-2.0 in series [1] (dose 10 nM); 2.0-3.0 in series [1] (dose 100 nM); 2.0-3.0 in series [1] (dose 1000 nM); 3.0-4.0 in series [1] (dose 10000 nM); 1.5-1.75 in series [2] (setting [5]); 1.75-2.0 in series [2] (setting [6]). The “Fold Change” value in series [2] (setting [7]) is recorded as 1.75-2.0. The “Number of Gigasomes Produced” value in series [1] (dose 10 nM) was 85-95; in series [1] (dose 100 nM), 105-115; in series [1] (dose 1000 nM), over 115; in series [1] (dose 10000 nM) it was over 115; in series [2] (setting [5]), 225-250; in series [2] (setting [6]), 250-275. For the same compound, in series [2] (setting [7]), the “Number of Gigasomes Produced” value is 250-275. The Viability in series [3] (setting [8]) was over 75%; in series [3] (setting [9]), 100%; in series [3] (setting [10]), over 75%; in series [3] (setting [11]) it was over 75%; in series [4] (setting [5]), over 75%; in series [4] (setting [6]), over 75%. In addition, in series [4] (setting [7]), the Viability was over 75%.
Turning to `C=C(C)[C@@H]1CC[C@]2(CO)CC[C@]3(C)[C@H](CC[C@@H]4[C@@]5(C)CC[C@H](O)C(C)(C)[C@@H]5CC[C@]43C)[C@@H]12` [Betulin], in series [1] (24 h), the fold induction at 0.01 µM lay in the range of 1.25 to 1.5. For the same compound, in series [1] (24 h), the fold induction at 10 µM was 1 to 1.25. The “Number of Gigasomes Produced” value in series [1] (dose 10 nM) is given as 45-55; in series [1] (dose 10000 nM), 35-45; in series [2] (setting [5]), 175-200. Also, in series [2] (24 h), the fold induction at 0.1 µM was 1.5 to 1.75. For the same compound, the Viability in series [3] (setting [8]), in series [3] (setting [11]) and in series [4] (setting [5]) was 100% in each case.
`O=c1ncn2nc(Sc3ccc(F)cc3F)ccc2c1-c1c(Cl)cccc1Cl` [Neflamapimod]: the fold induction at 0.01 µM was 0.75 to 1 in series [1] (24 h) and 1 to 1.25 in series [2] (24 h). In addition, the fold induction at 0.1 µM in series [1] (24 h) and in series [2] (24 h) was 0.75 to 1 in each case. The values for the fold induction at 1 µM in series [1] (24 h) and in series [2] (24 h) were 0.5 to 0.75 and 0.75 to 1, respectively. The results for the fold induction at 10 µM in series [1] (24 h) and in series [2] (24 h) were 0.5 to 0.75 and 0.75 to 1, respectively. In addition, the “Number of Gigasomes Produced” value in series [1] (dose 10 nM) is listed as 30-35; in series [1] (dose 100 nM), 25-30; in series [1] (dose 1000 nM), 20-25; in series [1] (dose 10000 nM) it was 15-20; in series [2] (setting [12]) it was 120-135; in series [2] (setting [13]), 90-105. Further, the “Number of Gigasomes Produced” value in series [2] (setting [14]) and in series [2] (setting [15]) was 75-90 in each case. The Viability in series [3] (setting [8]) is recorded as 100%; in series [3] (setting [9]) it was over 75%; in series [3] (setting [10]), 100%; in series [3] (setting [11]) it was 100%; in series [4] (human, 24 h, 10 nM), 100.0%; in series [4] (human, 24 h, 100 nM), 100.0%. For the same compound, the Viability is over 75% in series [4] (human, 24 h, 1000 nM) and 100.0% in series [4] (human, 24 h, 10000 nM).
As for `CC1=C(O)C(=O)C=C2C1=CC=C1[C@@]2(C)CC[C@@]2(C)[C@@H]3C[C@](C)(C(=O)O)CC[C@]3(C)CC[C@]12C` [Tripterin, reference compound], the results for the “Fold Change” value in series [1] (dose 1000 nM), in series [2] (setting [5]) and in series [2] (setting [6]) were 2.0-3.0, 0.75-1.0 and 3.0-4.0, respectively. For the same compound, the “Number of Gigasomes Produced” value in series [1] (dose 1000 nM) is given as 75-85; in series [2] (setting [5]), under 150; in series [2] (setting [6]), 375-400. The Viability in series [3] (setting [10]) is over 75%; in series [4] (setting [5]) it was over 75%; in series [4] (setting [6]) it was 50-75%.
For the compound `COc1cc(O)c2c(c1)oc(=O)c1c3cc(O)c(O)cc3oc21` [Wedelolactone, reference compound], in series [1] (Oleuropein across doses, Wedelolactone 10,000 nM, 24 h), the “gigasome production, fold-change compared to DMSO” value is on record as under 0.2. Also, the fold induction at 0.01 µM in series [2] (24 h) lay within 0.5 to 0.75. The fold induction at 0.1 µM in series [2] (24 h) is 0.5 to 0.75. In series [2] (24 h), the fold induction at 1 µM lay within 0.5 to 0.75. The fold induction at 10 µM in series [2] (24 h) was under 0.25. Besides, the “Number of Gigasomes Produced” value in series [2] (setting [12]) is on record as 75-90; in series [2] (setting [13]), 75-90; in series [2] (setting [14]) it was 50-75; in series [2] (setting [15]) it was under 20. Besides, the “downregulation of gigasome production” value in series [2] (cardiomyocytes, doses 10-10,000 nM, 24 h) is reported as “dose-dependent downregulation”. In addition, the Viability in series [4] (human, 24 h, 10 nM) is 100.0%; in series [4] (human, 24 h, 100 nM) it was 100.0%; in series [4] (human, 24 h, 1000 nM), over 75%; in series [4] (human, 24 h, 10000 nM), over 75%.
Consider `COc1ccc(C[C@H]2NC[C@H](O)[C@H]2OC(C)=O)cc1` [Anisomycin], for which the “Fold Change” value in series [1] (dose 10 nM) is recorded as 1.0-1.25; in series [1] (dose 100 nM), 1.75-2.0; in series [1] (dose 1000 nM) it was 1.75-2.0; in series [2] (setting [5]) it was 1.25-1.5. Besides, the “Number of Gigasomes Produced” value in series [1] (dose 10 nM) is on record as under 35; in series [1] (dose 100 nM), 65-75; in series [1] (dose 1000 nM), 65-75; in series [2] (setting [5]) it was 150-175. Besides, the Viability was 100% in series [3] (setting [8]), over 75% in series [3] (setting [9]), 50-75% in series [3] (setting [10]) and 50-75% in series [4] (setting [5]).
Consider `C[C@H]1CCC/C=C/[C@@H]2C[C@H](O)C[C@H]2[C@H](O)/C=C/C(=O)O1` [Brefeldin A], for which the entries for the “Fold Change” value in series [1] (dose 10 nM) and in series [2] (setting [16]) were 1.5-1.75 and 1.25-1.5, respectively. The “Number of Gigasomes Produced” value in series [1] (dose 10 nM) is 45-55; in series [2] (setting [16]), 250-275. Also, the Viability in series [3] (setting [8]) is reported as 100%; in series [4] (setting [16]) it was over 75%.
`Nc1ccccc1NC(=O)c1ccc(CNC(=O)OCc2cccnc2)cc1` [Entinostat, reference compound]: the fold induction at 10 µM in series [1] (24 h) fell in the range of 1.25 to 1.5. For the same compound, the “Number of Gigasomes Produced” value in series [1] (dose 10000 nM) is listed as 35-45; in series [2] (setting [5]), 300-325. Besides, the fold induction at 0.1 µM in series [2] (24 h) was 1.75 to 2. Also, the Viability in series [3] (human, 24 h, 10000 nM) is given as over 75%; in series [4] (human, 24 h, 100 nM), over 75%.
Turning to `CC(=O)O[C@H]1C(=O)[C@@]2(C)[C@H]([C@H](OC(=O)c3ccccc3)[C@]3(O)C[C@H](OC(=O)[C@H](O)[C@@H](NC(=O)c4ccccc4)c4ccccc4)C(C)=C1C3(C)C)[C@]1(OC(C)=O)CO[C@@H]1C[C@@H]2O` [Paclitaxel], the fold induction at 0.01 µM in series [1] (24 h) and in series [2] (24 h) was 1.5 to 1.75 throughout. The “Number of Gigasomes Produced” value in series [1] (dose 10 nM) is recorded as 55-65; in series [2] (setting [16]) it was 150-175. In addition, the Viability in series [3] (human, 24 h, 10 nM) is listed as over 75%; in series [4] (human, 24 h, 10 nM), over 75%.
On to `Cn1cnc(N)c2ncnc1-2` [Compound 3-Methyladenine, 3-Methyladenine], for which the values for the fold induction at 0.01 µM in series [1] (24 h) and in series [2] (24 h) were 1.5 to 1.75 and 1.25 to 1.5, respectively. In addition, the figures for the fold induction at 0.1 µM in series [1] (24 h) and in series [2] (24 h) were 1.5 to 1.75 and 1.25 to 1.5, respectively. In addition, the fold induction at 1 µM in series [1] (24 h) is 1.25 to 1.5; in series [2] (24 h), 0.75 to 1. Further, the “Number of Gigasomes Produced” value in series [1] (dose 10 nM) is reported as 45-55; in series [1] (dose 100 nM), 45-55; in series [1] (dose 1000 nM), 35-45; in series [2] (setting [12]) it was over 150; in series [2] (setting [13]), over 150; in series [2] (setting [14]), 120-135. Also, the “Number of Gigasomes Produced” value in series [2] (setting [15]) is 90-105. In series [2] (24 h), the fold induction at 10 µM was 0.5 to 0.75. Further, the Viability in series [3] (setting [8]) was 100%; in series [3] (setting [9]), 100%; in series [3] (setting [10]), 100%; in series [4] (setting [12]), over 75%; in series [4] (setting [13]), over 75%; in series [4] (setting [14]), over 75%. Also, the Viability in series [4] (setting [15]) is reported as over 75%.
Take `CCCCCCCCCCCCCCOc1ccc(C(=O)O)o1` [TOFA]: the “Fold Change” value in series [2] (setting [12]) was 1.0-1.25; in series [2] (setting [13]), 1.0-1.25; in series [2] (setting [14]), 0.75-1.0; in series [2] (setting [15]), 0.75-1.0. Besides, the “Number of Gigasomes Produced” value in series [2] (setting [12]) is listed as 120-135; in series [2] (setting [13]), 105-120; in series [2] (setting [14]), 105-120; in series [2] (setting [15]), 75-90. Moreover, the Viability in series [4] (setting [12]) was over 75%; in series [4] (setting [13]), 100.0%; in series [4] (setting [14]) it was over 75%; in series [4] (setting [15]) it was 100.0%.
